Legend:
[1] = tested on: control sera (pooled serum of ten healthy LUMC hospital workers; commercial negative donor pooled serum from the Dutch bloodbank); format: binding, human; design: Binding of Control serum LUMC to linear peptides / Binding of Control serum Blood-bank to linear peptides / Binding of Control serum LUMC to looped peptides / Binding of Control Serum Blood-Bank to Looped peptides / Binding of Control serum LUMC to linear peptides of the protein M of SARS-CoV Urbani / Binding of Control serum Blood-bank to linear peptides of the protein M of SARS-CoV Urbani / Binding of Control serum LUMC to looped peptides of the protein M of SARS-CoV Urbani / Binding of Control Serum Blood-Bank to Looped peptides of the protein M of SARS-CoV Urbani: unit not given here
[2] = tested on: rabbit serum obtained by immunizing a rabbit with the SARS-CoV strain Frankfurt 1; format: binding; design: Binding of a rabbit serum to linear peptides / Binding of a rabbit serum to looped peptides / Rabbit serum linear peptides / Rabbit serum looped peptides / Binding of a rabbit serum to linear peptides of protein N of SARS-CoV Urbani (Rabbit serum linear peptides) / Binding of a rabbit serum to looped/cyclic peptides of protein N of SARS-CoV Urbani (Rabbit serum looped peptides): unit not given here
[3] = tested on: antibodies in sera from SARS patients (sera 1a, 1b, 2, 6, 37, 62, London, SARS-yellow, SARS-green); format: binding, human; design: Binding of serum 6 to linear peptides of protein X1 of SARS-CoV Urbani / Binding of serum 37 to linear peptides of protein X1 of SARS-CoV Urbani / Binding of serum 6 to looped/cyclic peptide (PEPSCAN-ELISA) / Binding of serum 37 to looped/cyclic peptide (PEPSCAN-ELISA) / Binding of serum 37 to looped/cyclic peptides of protein X1 of SARS-CoV Urbani / Binding of serum 6 to linear peptides of protein X2 / Binding of serum 37 to linear peptides of protein X2 / Binding of serum 37 to looped/cyclic peptides of protein X2 of SARS-CoV Urbani / Binding of serum 6 to linear peptides of protein M of SARS-CoV Urbani / Binding of serum 37 to linear peptides of protein M of SARS-CoV Urbani / Binding of serum 6 to looped/cyclic peptides of protein M of SARS-CoV Urbani / Binding of serum 37 to looped/cyclic peptides of protein M of SARS-CoV Urbani / Binding of serum 6 to linear peptides of protein X3 of SARS-CoV Urbani / Binding of serum 37 to linear peptides of protein X3 of SARS-CoV Urbani / Binding of serum 37 to looped/cyclic peptides of protein X3 of SARS-CoV Urbani / Binding of serum 6 to linear peptides of protein X4 of SARS-CoV Urbani / Binding of serum 37 to linear peptides of protein X4 of SARS-CoV Urbani / Binding of serum 37 to looped/cyclic peptides of protein X4 of SARS-CoV Urbani / Binding of serum 6 to linear peptides of protein X5 of SARS-CoV Urbani / Binding of serum 37 to linear peptides of protein X5 of SARS-CoV Urbani / Binding of serum 37 to looped/cyclic peptides of protein X5 of SARS-CoV Urbani / Binding of serum 6 to linear peptides of protein N of SARS-CoV Urbani / Binding of serum 37 to linear peptides of protein N of SARS-CoV Urbani / Binding of serum 6 to linear peptide (PEPSCAN-ELISA) / Binding of serum 1a to looped/cyclic peptides of protein N of SARS-CoV Urbani / Binding of serum 1b to looped/cyclic peptides of protein N of SARS-CoV Urbani / Binding of serum 2 to looped/cyclic peptides of protein N of SARS-CoV Urbani / Binding of serum 6 to looped/cyclic peptides of protein N of SARS-CoV Urbani / Binding of serum 37 to looped/cyclic peptides of protein N of SARS-CoV Urbani / Binding of serum 62 to looped/cyclic peptides of protein N of SARS-CoV Urbani / Binding of serum London to looped/cyclic peptides of protein N of SARS-CoV Urbani / Binding of serum SARS-green to looped/cyclic peptides of protein N of SARS-CoV Urbani: unit not given here

## RVGTDSGFAAYNRYR
[1]
  Binding of Control Serum Blood-Bank to Looped peptides of the protein M of SARS-CoV Urbani: 0.5
  Binding of Control serum Blood-bank to linear peptides of the protein M of SARS-CoV Urbani: 0.7
  Binding of Control serum LUMC to linear peptides of the protein M of SARS-CoV Urbani: 0.4
  Binding of Control serum LUMC to looped peptides of the protein M of SARS-CoV Urbani: 0.6
[2]
  Rabbit serum linear peptides: 0.0
  Rabbit serum looped peptides: 0.3
[3]
  Binding of serum 1a to linear peptides of protein M of SARS-CoV Urbani: 0.7
  Binding of serum 1a to looped/cyclic peptides of protein M of SARS-CoV Urbani: 0.8
  Binding of serum 1b to linear peptides of protein M of SARS-CoV Urbani: 0.1
  Binding of serum 1b to looped/cyclic peptides of protein M of SARS-CoV Urbani: 0.5
  Binding of serum 2 to linear peptides of protein M of SARS-CoV Urbani: 0.5
  Binding of serum 2 to looped/cyclic peptides of protein M of SARS-CoV Urbani: 0.6
  Binding of serum 6 to linear peptides of protein M of SARS-CoV Urbani: 0.5
  Binding of serum 6 to looped/cyclic peptides of protein M of SARS-CoV Urbani: 1.4
  Binding of serum 37 to linear peptides of protein M of SARS-CoV Urbani: 0.6
  Binding of serum 37 to looped/cyclic peptides of protein M of SARS-CoV Urbani: 0.7
  Binding of serum 62 to linear peptides of protein M of SARS-CoV Urbani: 0.2
  Binding of serum 62 to looped/cyclic peptides of protein M of SARS-CoV Urbani: 0.6
  Binding of serum London to linear peptides of protein M of SARS-CoV Urbani: 0.3
  Binding of serum London to looped/cyclic peptides of protein M of SARS-CoV Urbani: 0.4
  Binding of serum SARS-green to linear peptides of protein M of SARS-CoV Urbani: 0.5
  Binding of serum SARS-green to looped/cyclic peptides of protein M of SARS-CoV Urbani: 0.3
  Binding of serum SARS-yellow to linear peptides of protein M of SARS-CoV Urbani: 0.3
  Binding of serum SARS-yellow to looped/cyclic peptides of protein M of SARS-CoV Urbani: 0.5

## RTRSMWSFNPETNIL
[1]
  Binding of Control Serum Blood-Bank to Looped peptides of the protein M of SARS-CoV Urbani: 0.7
  Binding of Control serum Blood-bank to linear peptides of the protein M of SARS-CoV Urbani: 0.9
  Binding of Control serum LUMC to linear peptides of the protein M of SARS-CoV Urbani: 0.7
  Binding of Control serum LUMC to looped peptides of the protein M of SARS-CoV Urbani: 0.7
[2]
  Rabbit serum linear peptides: 0.6
  Rabbit serum looped peptides: 0.4
[3]
  Binding of serum 1a to linear peptides of protein M of SARS-CoV Urbani: 0.9
  Binding of serum 1a to looped/cyclic peptides of protein M of SARS-CoV Urbani: 0.7
  Binding of serum 1b to linear peptides of protein M of SARS-CoV Urbani: 0.8
  Binding of serum 1b to looped/cyclic peptides of protein M of SARS-CoV Urbani: 0.3
  Binding of serum 2 to linear peptides of protein M of SARS-CoV Urbani: 0.8
  Binding of serum 2 to looped/cyclic peptides of protein M of SARS-CoV Urbani: 0.8
  Binding of serum 6 to linear peptides of protein M of SARS-CoV Urbani: 0.4
  Binding of serum 6 to looped/cyclic peptides of protein M of SARS-CoV Urbani: 0.7
  Binding of serum 37 to linear peptides of protein M of SARS-CoV Urbani: 0.9
  Binding of serum 37 to looped/cyclic peptides of protein M of SARS-CoV Urbani: 0.9
  Binding of serum 62 to linear peptides of protein M of SARS-CoV Urbani: 0.9
  Binding of serum 62 to looped/cyclic peptides of protein M of SARS-CoV Urbani: 0.9
  Binding of serum London to linear peptides of protein M of SARS-CoV Urbani: 0.3
  Binding of serum London to looped/cyclic peptides of protein M of SARS-CoV Urbani: 0.2
  Binding of serum SARS-green to linear peptides of protein M of SARS-CoV Urbani: 0.3
  Binding of serum SARS-green to looped/cyclic peptides of protein M of SARS-CoV Urbani: 0.0
  Binding of serum SARS-yellow to linear peptides of protein M of SARS-CoV Urbani: 0.1
  Binding of serum SARS-yellow to looped/cyclic peptides of protein M of SARS-CoV Urbani: 0.7

## ILVRYNTRGNTYSTA
[1]
  Binding of Control Serum Blood-Bank to Looped peptides: 0.4
  Binding of Control serum Blood-bank to linear peptides: 0.7
  Binding of Control serum LUMC to linear peptides: 0.5
  Binding of Control serum LUMC to looped peptides: 0.6
[2]
  Rabbit serum linear peptides: 0.9
  Rabbit serum looped peptides: 0.8
[3]
  Binding of serum 1a to linear peptides of protein X5 of SARS-CoV Urbani: 0.7
  Binding of serum 1a to looped/cyclic peptides of protein X5 of SARS-CoV Urbani: 0.5
  Binding of serum 1b to linear peptides of protein X5 of SARS-CoV Urbani: 0.4
  Binding of serum 1b to looped/cyclic peptides of protein X5 of SARS-CoV Urbani: 0.3
  Binding of serum 2 to linear peptides of protein X5 of SARS-CoV Urbani: 0.6
  Binding of serum 2 to looped/cyclic peptides of protein X5 of SARS-CoV Urbani: 0.6
  Binding of serum 6 to linear peptides of protein X5 of SARS-CoV Urbani: 0.7
  Binding of serum 6 to looped/cyclic peptides of protein X5 of SARS-CoV Urbani: 0.6
  Binding of serum 37 to linear peptides of protein X5 of SARS-CoV Urbani: 0.6
  Binding of serum 37 to looped/cyclic peptides of protein X5 of SARS-CoV Urbani: 0.4
  Binding of serum 62 to linear peptides of protein X5 of SARS-CoV Urbani: 0.7
  Binding of serum 62 to looped/cyclic peptides of protein X5 of SARS-CoV Urbani: 0.8
  Binding of serum London to linear peptides of protein X5 of SARS-CoV Urbani: 0.6
  Binding of serum London to looped/cyclic peptides of protein X5 of SARS-CoV Urbani: 0.2
  Binding of serum SARS-green to linear peptides of protein X5 of SARS-CoV Urbani: 0.5
  Binding of serum SARS-green to looped/cyclic peptides of protein X5 of SARS-CoV Urbani: 0.3
  Binding of serum SARS-yellow to linear peptides of protein X5 of SARS-CoV Urbani: 0.2
  Binding of serum SARS-yellow to looped/cyclic peptides of protein X5 of SARS-CoV Urbani: 0.8

## MCKYTQSTALQELLI
[1]
  Binding of Control Serum Blood-Bank to Looped peptides: 0.8
  Binding of Control serum Blood-bank to linear peptides: 0.9
  Binding of Control serum LUMC to linear peptides: 0.7
  Binding of Control serum LUMC to looped peptides: 0.7
[2]
  Binding of a rabbit serum to linear peptides: 0.2
  Binding of a rabbit serum to looped peptides: 0.4
[3]
  Binding of serum 1a to linear peptides of protein X2: 0.8
  Binding of serum 1a to looped/cyclic peptides of protein X2 of SARS-CoV Urbani: 0.6
  Binding of serum 1b to linear peptides of protein X2: 0.7
  Binding of serum 1b to looped/cyclic peptides of protein X2 of SARS-CoV Urbani: 0.6
  Binding of serum 2 to linear peptides of protein X2: 0.6
  Binding of serum 2 to looped/cyclic peptides of protein X2 of SARS-CoV Urbani: 0.5
  Binding of serum 6 to linear peptides of protein X2: 0.5
  Binding of serum 6 to looped/cyclic peptides of protein X2 of SARS-CoV Urbani: 0.3
  Binding of serum 37 to linear peptides of protein X2: 0.6
  Binding of serum 37 to looped/cyclic peptides of protein X2 of SARS-CoV Urbani: 0.7
  Binding of serum 62 to linear peptides of protein X2: 0.8
  Binding of serum 62 to looped/cyclic peptides of protein X2 of SARS-CoV Urbani: 0.8
  Binding of serum London to linear peptides of protein X2: 0.5
  Binding of serum London to looped/cyclic peptides of protein X2 of SARS-CoV Urbani: 0.2
  Binding of serum SARS-green to linear peptides of protein X2: 0.8
  Binding of serum SARS-green to looped/cyclic peptides of protein X2 of SARS-CoV Urbani: 0.7
  Binding of serum SARS-yellow to linear peptides of protein X2: 0.7
  Binding of serum SARS-yellow to looped/cyclic peptides of protein X2 of SARS-CoV Urbani: 0.4

## LVIGFLFLAWIMLLQ
[1]
  Binding of Control Serum Blood-Bank to Looped peptides of the protein M of SARS-CoV Urbani: 0.6
  Binding of Control serum Blood-bank to linear peptides of the protein M of SARS-CoV Urbani: 0.6
  Binding of Control serum LUMC to linear peptides of the protein M of SARS-CoV Urbani: 0.5
  Binding of Control serum LUMC to looped peptides of the protein M of SARS-CoV Urbani: 0.7
[2]
  Rabbit serum linear peptides: 0.1
  Rabbit serum looped peptides: 0.3
[3]
  Binding of serum 1a to linear peptides of protein M of SARS-CoV Urbani: 0.7
  Binding of serum 1a to looped/cyclic peptides of protein M of SARS-CoV Urbani: 0.7
  Binding of serum 1b to linear peptides of protein M of SARS-CoV Urbani: 0.5
  Binding of serum 1b to looped/cyclic peptides of protein M of SARS-CoV Urbani: 0.6
  Binding of serum 2 to linear peptides of protein M of SARS-CoV Urbani: 0.5
  Binding of serum 2 to looped/cyclic peptides of protein M of SARS-CoV Urbani: 0.8
  Binding of serum 6 to linear peptides of protein M of SARS-CoV Urbani: 0.4
  Binding of serum 6 to looped/cyclic peptides of protein M of SARS-CoV Urbani: 0.5
  Binding of serum 37 to linear peptides of protein M of SARS-CoV Urbani: 0.4
  Binding of serum 37 to looped/cyclic peptides of protein M of SARS-CoV Urbani: 0.7
  Binding of serum 62 to linear peptides of protein M of SARS-CoV Urbani: 0.4
  Binding of serum 62 to looped/cyclic peptides of protein M of SARS-CoV Urbani: 0.7
  Binding of serum London to linear peptides of protein M of SARS-CoV Urbani: 0.3
  Binding of serum London to looped/cyclic peptides of protein M of SARS-CoV Urbani: 0.2
  Binding of serum SARS-green to linear peptides of protein M of SARS-CoV Urbani: 0.4
  Binding of serum SARS-green to looped/cyclic peptides of protein M of SARS-CoV Urbani: 0.3
  Binding of serum SARS-yellow to linear peptides of protein M of SARS-CoV Urbani: 0.1
  Binding of serum SARS-yellow to looped/cyclic peptides of protein M of SARS-CoV Urbani: 0.7

Reference: patent publication US20070128217A1 (priority 2003, published 2007)
